The values that follow come from patent publication US10660877B2 (BRISTOL-MYERS SQUIBB COMPANY, priority 2016, dated 2020).

Assay [1] concerns the target human TLR8 (Homo sapiens (Human), UniProt Q9NR97). Briefly: TLR8 inhibition reporter assay (HEK-Blue cells, SEAP reporter, R848 stimulation). (In general: Reporter assays use an easily measured gene product as a stand-in for the process of interest.);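 note: compounds tested from 0.05 nM to 50 µM, 22 h at 37 °C, SEAP measured with HEK-Blue Detection, inhibition relative to agonist plus DMSO versus a known inhibitor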
In assay [2] the target is human TLR9 (Homo sapiens (Human), UniProt Q9NR96). Briefly: TLR9 inhibition reporter assay (HEK-Blue cells, SEAP reporter, ODN2006 stimulation).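 Note: compounds tested over 0.05 nM to 50 µM, 22 h incubation, inhibition taken as SEAP signal drop from agonist plus DMSO wells toward a known inhibitor control.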
Sequence of human TLR9 (Q9NR96 26-1032): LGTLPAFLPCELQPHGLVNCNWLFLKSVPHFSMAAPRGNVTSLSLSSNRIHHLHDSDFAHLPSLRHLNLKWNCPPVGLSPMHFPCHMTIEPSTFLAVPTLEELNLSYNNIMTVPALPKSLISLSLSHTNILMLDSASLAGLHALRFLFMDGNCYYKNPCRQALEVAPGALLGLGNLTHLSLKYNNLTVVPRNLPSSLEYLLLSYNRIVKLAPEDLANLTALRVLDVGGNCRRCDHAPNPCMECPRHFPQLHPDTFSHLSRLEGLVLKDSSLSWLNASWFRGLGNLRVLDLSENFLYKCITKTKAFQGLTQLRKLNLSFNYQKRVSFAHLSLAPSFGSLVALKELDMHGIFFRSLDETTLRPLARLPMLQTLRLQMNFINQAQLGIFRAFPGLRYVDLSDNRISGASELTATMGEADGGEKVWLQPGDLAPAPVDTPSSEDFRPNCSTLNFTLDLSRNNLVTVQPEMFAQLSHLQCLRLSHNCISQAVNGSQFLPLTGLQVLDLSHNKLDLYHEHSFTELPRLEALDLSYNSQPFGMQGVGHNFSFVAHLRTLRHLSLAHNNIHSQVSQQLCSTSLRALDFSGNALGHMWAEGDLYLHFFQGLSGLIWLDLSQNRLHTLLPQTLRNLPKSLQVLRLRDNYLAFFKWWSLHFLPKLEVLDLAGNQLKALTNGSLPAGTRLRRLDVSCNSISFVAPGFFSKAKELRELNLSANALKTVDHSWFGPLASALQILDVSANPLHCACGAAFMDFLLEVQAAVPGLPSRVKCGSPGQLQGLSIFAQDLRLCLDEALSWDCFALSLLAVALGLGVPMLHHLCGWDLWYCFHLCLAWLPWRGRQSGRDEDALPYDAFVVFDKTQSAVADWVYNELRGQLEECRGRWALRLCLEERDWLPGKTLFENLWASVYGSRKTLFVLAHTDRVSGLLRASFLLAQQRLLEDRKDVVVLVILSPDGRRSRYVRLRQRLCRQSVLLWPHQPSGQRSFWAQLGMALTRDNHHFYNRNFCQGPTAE
In assay [3] the target is human TLR7 (Homo sapiens (Human), UniProt Q9NYK1). The assay can be described thus: TLR7 inhibition reporter assay (HEK-Blue cells, SEAP reporter, gardiquimod stimulation). The assay is classed as cell-based. The settings on record: HEK-Blue cells overexpressing human TLR7, gardiquimod 7.5 μM.
Sequence of human TLR7 (Q9NYK1 27-1049): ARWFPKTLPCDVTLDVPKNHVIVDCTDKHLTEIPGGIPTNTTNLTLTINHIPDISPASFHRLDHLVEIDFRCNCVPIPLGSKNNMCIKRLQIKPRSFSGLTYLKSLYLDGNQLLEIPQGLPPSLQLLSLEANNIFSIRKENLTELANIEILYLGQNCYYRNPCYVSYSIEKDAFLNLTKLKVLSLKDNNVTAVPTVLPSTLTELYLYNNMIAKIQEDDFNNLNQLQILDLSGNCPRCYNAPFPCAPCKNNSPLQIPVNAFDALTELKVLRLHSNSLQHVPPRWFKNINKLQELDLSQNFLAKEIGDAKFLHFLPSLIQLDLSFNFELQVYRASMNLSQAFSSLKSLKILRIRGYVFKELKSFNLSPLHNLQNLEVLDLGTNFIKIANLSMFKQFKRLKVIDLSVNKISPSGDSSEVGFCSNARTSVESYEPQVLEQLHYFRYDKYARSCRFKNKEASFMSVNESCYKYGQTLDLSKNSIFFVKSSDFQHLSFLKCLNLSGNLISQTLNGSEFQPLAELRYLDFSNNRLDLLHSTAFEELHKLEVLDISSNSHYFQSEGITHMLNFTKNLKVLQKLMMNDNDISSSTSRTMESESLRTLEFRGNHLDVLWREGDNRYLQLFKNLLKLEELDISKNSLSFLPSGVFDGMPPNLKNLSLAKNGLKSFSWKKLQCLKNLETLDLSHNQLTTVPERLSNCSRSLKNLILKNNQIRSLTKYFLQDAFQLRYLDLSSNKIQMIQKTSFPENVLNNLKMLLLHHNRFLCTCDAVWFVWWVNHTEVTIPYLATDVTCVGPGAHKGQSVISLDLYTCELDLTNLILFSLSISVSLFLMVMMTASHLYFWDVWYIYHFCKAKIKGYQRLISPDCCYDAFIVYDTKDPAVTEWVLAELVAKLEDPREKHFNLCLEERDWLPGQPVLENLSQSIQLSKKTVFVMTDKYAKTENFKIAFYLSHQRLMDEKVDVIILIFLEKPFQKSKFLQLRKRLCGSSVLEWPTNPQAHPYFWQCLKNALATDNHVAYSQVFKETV
The mark [4] stands for this setting: read-out: TLR8 IC50, HEK-Blue cells overexpressing human TLR8, R848 15.9 μM.
[5] abbreviates: read-out: TLR9 IC50, HEK-Blue cells overexpressing human TLR9, ODN2006 5 nM.

Read-outs that look alike come from different tables or passages of the source.

Sequence of human TLR8 (Q9NR97 27-1041): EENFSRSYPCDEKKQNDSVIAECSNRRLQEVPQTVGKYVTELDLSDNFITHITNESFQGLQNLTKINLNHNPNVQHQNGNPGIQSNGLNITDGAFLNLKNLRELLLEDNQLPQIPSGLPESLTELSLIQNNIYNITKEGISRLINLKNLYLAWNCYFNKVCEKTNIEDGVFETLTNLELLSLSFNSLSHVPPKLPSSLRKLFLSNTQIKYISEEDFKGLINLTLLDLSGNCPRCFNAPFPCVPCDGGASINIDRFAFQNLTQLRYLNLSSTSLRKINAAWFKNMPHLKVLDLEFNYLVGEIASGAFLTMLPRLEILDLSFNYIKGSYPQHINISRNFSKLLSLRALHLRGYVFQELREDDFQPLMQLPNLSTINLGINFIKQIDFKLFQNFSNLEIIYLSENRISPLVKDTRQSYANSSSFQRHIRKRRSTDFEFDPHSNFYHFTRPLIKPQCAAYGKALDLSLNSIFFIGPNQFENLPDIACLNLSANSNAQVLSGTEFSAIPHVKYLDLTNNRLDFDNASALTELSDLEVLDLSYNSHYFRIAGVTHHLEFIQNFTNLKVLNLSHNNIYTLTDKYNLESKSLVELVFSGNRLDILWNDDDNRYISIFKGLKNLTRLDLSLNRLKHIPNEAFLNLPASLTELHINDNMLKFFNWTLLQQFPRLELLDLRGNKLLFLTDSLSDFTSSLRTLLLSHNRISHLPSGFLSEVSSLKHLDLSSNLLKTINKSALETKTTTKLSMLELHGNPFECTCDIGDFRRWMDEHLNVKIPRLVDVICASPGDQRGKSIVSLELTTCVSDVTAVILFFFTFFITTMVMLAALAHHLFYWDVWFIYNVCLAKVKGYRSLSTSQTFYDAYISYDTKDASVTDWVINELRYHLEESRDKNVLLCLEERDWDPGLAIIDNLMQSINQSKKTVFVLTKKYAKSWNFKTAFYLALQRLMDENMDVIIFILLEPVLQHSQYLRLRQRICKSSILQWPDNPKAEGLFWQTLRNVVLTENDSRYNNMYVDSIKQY

Usually IC50 stands for the concentration that gives 50% inhibition. For the molecule `Cc1cc(-c2[nH]c3ccc(C4CCN(C5CCCOC5)CC4)cc3c2C(C)C)c(C)cn1` (stereo not drawn) [Example 726, 2-(2,5-dimethylpyridin-4-yl)-3-isopropyl-5-(1-(tetrahydro-2H-pyran-3-yl)piperidin-4-yl)-1H-indole], the IC50 in assay [1] (setting [4]) turned out to be 1.1 nM; in assay [2] (setting [5]), 1450 nM; in assay [3], 14.2 nM.
Turning to `Cc1cc(-c2[nH]c3ccc(C4CCN(C5CCCOC5)CC4)cc3c2C(C)C)c(F)cn1` (stereo not drawn) [Example 727, 2-(5-fluoro-2-methylpyridin-4-yl)-3-isopropyl-5-(1-(tetrahydro-2H-pyran-3-yl)piperidin-4-yl)-1H-indole], the IC50 in assay [1] (setting [4]) came out at 3.5 nM; in assay [2] (setting [5]) it was 2920 nM; in assay [3], 7.3 nM.
Regarding `Cc1cc(-c2[nH]c3ccc(C4CCN(C5CCOC5)CC4)cc3c2C(C)C)c(C)cn1` (stereo not drawn) [Example 728, 2-(2,5-dimethylpyridin-4-yl)-3-isopropyl-5-(1-(tetrahydrofuran-3-yl)piperidin-4-yl)-1H-indole], the IC50 in assay [1] (setting [4]) turned out to be 1.1 nM; in assay [2] (setting [5]), 1340 nM; in assay [3] it was 6.7 nM.
In the case of `Cc1cc(-c2[nH]c3ccc(C4CCN(C5COC5)CC4)cc3c2C(C)C)c(F)c(C)n1` [Example 729, 2-(3-fluoro-2,6-dimethylpyridin-4-yl)-3-isopropyl-5-(1-(oxetan-3-yl)piperidin-4-yl)-1H-indole], the IC50 in assay [1] (setting [4]) came to 33.6 nM; in assay [2] (setting [5]), 3620 nM; in assay [3], 10.1 nM.
Taken in the same sequence, the figures for `Cc1nccc(-c2[nH]c3ccc(C4CCN(C5COC5)CC4)cc3c2C(C)C)c1F` [Example 730, 2-(3-fluoro-2-methylpyridin-4-yl)-3-isopropyl-5-(1-(oxetan-3-yl)piperidin-4-yl)-1H-indole] were 8.2 nM, 9410 nM and 9.2 nM.
In the case of `COc1ncc(CN2CCC(c3ccc4[nH]c(-c5ccnc(C)c5F)c(C(C)C)c4c3)CC2)cn1` [Example 731, 2-(3-fluoro-2-methylpyridin-4-yl)-3-isopropyl-5-(1-((2-methoxypyrimidin-5-yl)methyl)piperidin-4-yl)-1H-indole], the IC50 came to 2.7 nM in assay [1] (setting [4]), 1310 nM in assay [2] (setting [5]) and 8.9 nM in assay [3].
With `Cc1nccc(-c2[nH]c3ccc(C4CCN(Cc5ncn(C)n5)CC4)cc3c2C(C)C)c1F` [Example 732, 2-(3-fluoro-2-methylpyridin-4-yl)-3-isopropyl-5-(1-((1-methyl-1H-1,2,4-triazol-3-yl)methyl)piperidin-4-yl)-1H-indole], the IC50 in assay [1] (setting [4]) came to 10.3 nM; in assay [2] (setting [5]), 10100 nM; in assay [3] it was 22.5 nM.
In the case of `COc1ncc(CN2CCC(c3ccc4[nH]c(-c5cc(C)ncc5F)c(C(C)C)c4c3)CC2)cn1` [Example 733, 2-(5-fluoro-2-methylpyridin-4-yl)-3-isopropyl-5-(1-((2-methoxypyrimidin-5-yl)methyl)piperidin-4-yl)-1H-indole], the IC50 in assay [1] (setting [4]) was found to be 4.2 nM; in assay [2] (setting [5]), 1810 nM; in assay [3] it was 11.1 nM.
With `Cc1cc(-c2[nH]c3ccc(C4CCN(Cc5ncon5)CC4)cc3c2C(C)C)c(C)cn1` [Example 734, 3-((4-(2-(2,5-dimethylpyridin-4-yl)-3-isopropyl-1H-indol-5-yl)piperidin-1-yl)methyl)-1,2,4-oxadiazole], the IC50 in assay [1] (setting [4]) came out at 6.8 nM; in assay [2] (setting [5]), 8990 nM; in assay [3], 13.8 nM.
Taken in the same sequence, the figures for `Cc1cc(-c2[nH]c3ccc(C4CCN(Cc5ncon5)CC4)cc3c2C(C)C)c(F)cn1` [Example 735, 3-((4-(2-(5-fluoro-2-methylpyridin-4-yl)-3-isopropyl-1H-indol-5-yl)piperidin-1-yl)methyl)-1,2,4-oxadiazole] were 50 nM, above 50000 nM and 22.3 nM.
Taken in the same sequence, the figures for `Cc1cc(-c2[nH]c3ccc(C4CCN(Cc5nncn5C)CC4)cc3c2C(C)C)c(C)cn1` [Example 736, 2-(2,5-dimethylpyridin-4-yl)-3-isopropyl-5-(1-((4-methyl-4H-1,2,4-triazol-3-yl)methyl)piperidin-4-yl)-1H-indole] were 6.5 nM, 20100 nM and 42.3 nM.
Consider `Cc1cc(-c2[nH]c3ccc(C4CCN(Cc5nncn5C)CC4)cc3c2C(C)C)c(F)cn1` [Example 737, 2-(5-fluoro-2-methylpyridin-4-yl)-3-isopropyl-5-(1-((4-methyl-4H-1,2,4-triazol-3-yl)methyl)piperidin-4-yl)-1H-indole], for which the IC50 was 5.1 nM in assay [1] (setting [4]), above 50000 nM in assay [2] (setting [5]) and 14.5 nM in assay [3].
For `Cc1cc(-c2[nH]c3ccc(C4CCN(C[C@@H]5CCNC5)CC4)cc3c2C(C)C)ccn1` [Example 738, (R)-3-isopropyl-2-(2-methylpyridin-4-yl)-5-(1-(pyrrolidin-3-ylmethyl)piperidin-4-yl)-1H-indole], the IC50 amounted to 2.5 nM in assay [1] (setting [4]), 282 nM in assay [2] (setting [5]) and 11.2 nM in assay [3].
As to `CCc1c(-c2ccnc(C)c2)[nH]c2ccc(C3CCN(C[C@@H]4CCNC4)CC3)cc12` [Example 739, (R)-3-ethyl-2-(2-methylpyridin-4-yl)-5-(1-(pyrrolidin-3-ylmethyl)piperidin-4-yl)-1H-indole], the IC50 in assay [1] (setting [4]) was determined as 8.2 nM; in assay [2] (setting [5]), 96 nM; in assay [3], 120 nM.
With `CCc1c(-c2ccnc(C)c2)[nH]c2ccc(C3CCN(C[C@@H]4CCCN4)CC3)cc12` [Example 740, (S)-3-ethyl-2-(2-methylpyridin-4-yl)-5-(1-(pyrrolidin-2-ylmethyl)piperidin-4-yl)-1H-indole], the IC50 in assay [1] (TLR8 IC50, HEK-Blue cells overexpressing human TLR8, R848 15.9 μM) was found to be 6 nM; in assay [2] (TLR9 IC50, HEK-Blue cells overexpressing human TLR9, ODN2006 5 nM), 111 nM; in assay [3], 67.9 nM.
Take `CCc1c(-c2ccnc(C)c2)[nH]c2ccc(C3CCN(C[C@@H]4CCCN4C(C)C)CC3)cc12` [Example 741, (S)-3-ethyl-5-(1-((1-isopropylpyrrolidin-2-yl)methyl)piperidin-4-yl)-2-(2-methylpyridin-4-yl)-1H-indole]: the IC50 came out at 32.7 nM in assay [1] (setting [4]), 213 nM in assay [2] (setting [5]) and 172 nM in assay [3].
Turning to `Cc1cc(-c2[nH]c3ccc(C4CCN(CC5CCN(C(C)C)CC5)CC4)cc3c2C(C)C)ccn1` [Example 742, 3-isopropyl-5-(1-((1-isopropylpiperidin-4-yl)methyl)piperidin-4-yl)-2-(2-methylpyridin-4-yl)-1H-indole], the IC50 amounted to 5.5 nM in assay [1] (setting [4]), 101 nM in assay [2] (setting [5]) and 9.2 nM in assay [3].
`Cc1cc(-c2[nH]c3ccc(C4CCN(CC5CCN(C)CC5)CC4)cc3c2C(C)C)ccn1` [Example 743, 3-isopropyl-5-(1-((1-methylpiperidin-4-yl)methyl)piperidin-4-yl)-2-(2-methylpyridin-4-yl)-1H-indole]: the results for the IC50 in assay [1] (setting [4]), in assay [2] (setting [5]) and in assay [3] were 5.1 nM, 282 nM and 6.5 nM, respectively.
For `Cc1cc(-c2[nH]c3ccc(C4CCN(Cc5[nH]cnc5C)CC4)cc3c2C(C)C)ccn1` [Example 744, 3-isopropyl-5-(1-((4-methyl-1H-imidazol-5-yl)methyl)piperidin-4-yl)-2-(2-methylpyridin-4-yl)-1H-indole], the values for the 50% inhibitory concentration (IC50) in assay [1] (setting [4]), in assay [2] (setting [5]) and in assay [3] were 13.5 nM, 281 nM and 28.1 nM, respectively.
As to `CNCCN1CCC(c2ccc3[nH]c(-c4ccnc(N5CCN(C)CC5)c4)c(C)c3c2)CC1` [Example 746, N-methyl-2-(4-(3-methyl-2-(2-(4-methylpiperazin-1-yl)pyridin-4-yl)-1H-indol-5-yl)piperidin-1-yl)ethan-1-amine], the IC50 in assay [1] (setting [4]) is above 50000 nM; in assay [2] (setting [5]), 69 nM; in assay [3] it was 4030 nM.
Take `CNCCN1CCC(c2ccc3[nH]c(-c4ccnc(Cl)c4)c(C)c3c2)CC1` [Example 751, 2-(4-(2-(2-chloropyridin-4-yl)-3-methyl-1H-indol-5-yl)piperidin-1-yl)-N-methylethan-1-amine]: the IC50 in assay [1] (setting [4]) amounted to 55.6 nM; in assay [2] (setting [5]) it was 324 nM; in assay [3], 472 nM.
Taken in the same sequence, the figures for `CNCCN1CCC(c2ccc3[nH]c(-c4ccnc(C(=O)OC)c4)c(C)c3c2)CC1` [Example 752, methyl 4-(3-methyl-5-(1-(2-(methylamino)ethyl)piperidin-4-yl)-1H-indol-2-yl) picolinate] were 114 nM, 199 nM and 231 nM.
Take `CNCCN1CCC(c2ccc3[nH]c(-c4ccncc4OC)c(C)c3c2)CC1` [Example 754, 2-(4-(2-(3-methoxypyridin-4-yl)-3-methyl-1H-indol-5-yl)piperidin-1-yl)-N-methylethan-1-amine]: the figures for the IC50 in assay [1] (setting [4]), in assay [2] (setting [5]) and in assay [3] were 27.5 nM, 325 nM and 5860 nM, respectively.
Turning to `CNCCN1CCC(c2ccc3[nH]c(-c4ccnc(C#N)c4)c(C)c3c2)CC1` [Example 755, 4-(3-methyl-5-(1-(2-(methylamino)ethyl)piperidin-4-yl)-1H-indol-2-yl)picolinonitrile], the IC50 in assay [1] (setting [4]) was determined as 86.6 nM; in assay [2] (setting [5]), 599 nM; in assay [3], 2650 nM.
As to `CNCCN1CCC(c2ccc3[nH]c(-c4cc(OC)ncc4F)c(C)c3c2)CC1` [Example 756, 2-(4-(2-(5-fluoro-2-methoxypyridin-4-yl)-3-methyl-1H-indol-5-yl)piperidin-1-yl)-N-methylethan-1-amine], the IC50 in assay [1] (setting [4]) came to 185 nM; in assay [2] (setting [5]), 3300 nM; in assay [3] it was 3120 nM.
For `CNCCN1CCC(c2ccc3[nH]c(-c4cc(Cl)ncc4OC)c(C)c3c2)CC1` [Example 757, 2-(4-(2-(2-chloro-5-methoxypyridin-4-yl)-3-methyl-1H-indol-5-yl)piperidin-1-yl)-N-methylethan-1-amine], the IC50 in assay [1] (setting [4]) is 93.2 nM; in assay [2] (setting [5]) it was 1300 nM; in assay [3], 6670 nM.
